The values that follow come from patent US20090291950A1, “BICYCLIC HETEROARYL INHIBITORS OF PDE4” (KALYPSYS, INC., priority 2006, published 2009).

Usually IC50 stands for the concentration at which inhibition is half-maximal. Higher therefore signals a need for much substance.

For one assay, the target named is T1, PDE4B (Homo sapiens, UniProt Q07343).
T1 construct: hexahistidine (His6) (N); made in house
The experiment in a line: coupled PDE/AK bioluminescent assay. It is filed as biochemical. As to conditions: catalytic domain of PDE4B. The source says: Phosphodiesterases regulate the activity of the second messenger cyclic adenosine monophosphate (cAMP) by hydrolyzing cAMP to adenosine monophosphate (AMP). We developed a novel coupled PDE/AK bioluminescent high-throughput assay to measure the activity of phosphodiesterases. In the PDE/AK assay, the AMP produced from the hydrolysis of cAMP by phosphodiesterase is converted to adenosine diphosphate (ADP) by the phosphotransferase activity of adenylate kinase (also known as ADK or myokinase). Adenylate kinase will catalyze the conversion of 1 mole of AMP and 1 mole of ATP into 2 moles of ADP. Thus the conversion of AMP to ADP will result in the subsequent loss of ATP. The decrease in ATP concentration can be monitored as light output using luciferase in a reaction that requires ATP to produce light. The PDE/AK assay uses luciferase, which catalyzes the production of light from ATP present in the reaction mix. The amount of emitted light is inversely proportional to the level of AMP present in the reaction. Test compounds are incubated with the phosphodiesterases and phosphodiesterase inhibitors will decrease the rate of cAMP hydrolysis and decrease the subsequent production of AMP. Thus phosphodiesterase inhibitors will decrease the conversion of ATP to ADP and result in the greatest emission of light.
Compounds may be screened for functional potency in in vitro biochemical assays for their ability to inhibit the activity of phosphodiesterase (PDE) enzymes. A novel coupled PDE/AK assay was utilized to measure the inhibitory activity of compounds on PDE isoforms. The catalytic domain of PDE4B was fused to an amino-terminus hex-histidine affinity tag and purified. PDE4B enzyme was incubated with compounds for 10 minutes. Cyclic AMP substrate, ATP and adenylate kinase were then added to the PDE enzyme mix and incubated for 45 minutes at room temperature. A commercial ATP detection assay, Perkin Elmer's easyLite ATP detection reagent, was then added to measure the relative amount of ATP present in the reaction. After 10 minute incubation, the luminescent signal was quantitated with either the Perkin Elmer Viewlux or Molecular Devices Acquest or Analyst. Roflumilast and Rolipram are the positive controls used in the assay.
The PDE/AK assay can be performed with any cAMP dependent phosphodiesterase, and can be performed in 96-, 384-, or 1536-well plates. […] Specifically, the use of radioactive substrates in a phosphodiesterase activity assay requires special protocols for handling and waste disposal, and reduced throughput. Modified substrates add the additional complexity of potentially altering the binding to the phosphodiesterase catalytic site. Fluorescently modified substrates may cause fluorescence artifacts that may interfere in the interpretation of assay results. The use of beads that selectively bind to either the cAMP or AMP may cause an additional complexity in reagent handling. The use of antibodies that selectively bind to either cAMP or AMP can be extremely costly with a relatively small signal to noise ratio. Therefore, the novel PDE/AK assay represents a simple, cost-effective alternative to known methods.

For assay [1], the system named is dry eye (corneal staining, tear breakup time). Description: Lacrimal gland inflammation-induced dry eye in rabbits. Type of assay: in vivo. To be noted: topical ocular BID, rabbit ConA dry eye. The source says: A more detailed description of the assay used herein may be found in Naglehout, T J et al. 2005, “Preservation of Tear Film Integrity and Inhibition of Corneal Injury by Dexamethasone in a Rabbit Model of Lacrimal Gland Inflammation-Induced Dry Eye,”J. Ocular Pharm. Ther., 21:2. 139-148, the disclosure of which is hereby incorporated by reference as if written herein in its entirety. Rabbits (n=4/group) were randomized into treatment groups and dosed topically BID with maxidex vehicle or test drug beginning one day prior to initiation of dry eye. Each rabbit received bilateral lacrimal gland injections of saline or ConA (300 μg/30 μl) and topical ocular dosing was continued BID throughout the study. Desiccation was initiated 1-2 hours following lacrimal gland injection by placing conscious rabbits in the environmental chamber (10-15% humidity/72° F.). Following 72 consecutive hours of exposure to this dry environment, the animals were anesthetized and sutures were placed in each upper and lower eyelid and lifted to form a corneal/conjunctival cup. Methylene blue dye (1 mL, 1% in dH2O) was added to the cup for three minutes and the excess removed by washing with 200 mL BSS®. The contralateral eye was then stained using the same procedure. Rabbits were euthanized immediately following the staining procedure and the eyes were excised. The corneas were isolated with a trephine and the 9.5-mm punch of the cornea was placed in 2 mL acetone/saturated sodium sulfate (7:3, vol./vol.). Absorbance of the extracted dye was determined at 660 nm. TBUT was quantified in a separate group of treated animals. TBUT was determined by instilling 5 μL sodium fluorescein into the cul de sac and manually blinking the lids to distribute the fluorescein within the tear film. Under slit lamp observation, the eye was held open and the time whereby one or more black spots or streaks appeared in the precorneal tear film was recorded. The rabbits were euthanized 3 days following ConA inj ection.

Where [2] appears, read: 1 × 10^−2 percent concentration.
Where [3] appears, read: 1 × 10^−4 percent concentration.
[4] abbreviates: 1 × 10^−6 percent concentration.

Bounds are passed on as bounds.

T1 sequence (Q07343 330-659 limits assumed, species assumed): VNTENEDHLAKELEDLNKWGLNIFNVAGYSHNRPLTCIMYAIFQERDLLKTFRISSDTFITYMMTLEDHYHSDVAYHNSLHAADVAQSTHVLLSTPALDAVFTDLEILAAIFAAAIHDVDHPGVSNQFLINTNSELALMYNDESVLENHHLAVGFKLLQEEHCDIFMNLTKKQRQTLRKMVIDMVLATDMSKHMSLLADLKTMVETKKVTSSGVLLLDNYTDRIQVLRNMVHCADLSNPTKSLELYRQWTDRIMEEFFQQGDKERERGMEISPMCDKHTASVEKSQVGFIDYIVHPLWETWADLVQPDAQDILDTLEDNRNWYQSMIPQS

Take `COc1ccc2c(Nc3c(Cl)cncc3Cl)cc(OCCN(C)C)nc2c1OC1CCCC1` [Example 25, 8-(Cyclopentyloxy)-N-(3,5-dichloropyridin-4-yl)-2-(2-(dimethylamino)ethoxy)-7-methoxyquinolin-4-amine]: the IC50 on PDE4B was at most 1000 nM. For the same molecule, the “Activity at Percent Concentration Tested” value in assay [1] (setting [2]), in assay [1] (setting [3]) and in assay [1] (setting [4]) was “Inactive” in each case.

On PDE4B, `COc1ccc2c(Nc3c(Cl)cncc3Cl)cc(OCCN(C)C)nc2c1OCC1CC1` [Example 30, 8-(Cyclopropylmethoxy)-N-(3,5-dichloropyridin-4-yl)-2-(2-(dimethylamino)ethoxy)-7-methoxyquinolin-4-amine] displayed an IC50 of at most 1000 nM. Further, the “Activity at Percent Concentration Tested” value in assay [1] (setting [2]), in assay [1] (setting [3]) and in assay [1] (setting [4]) was “Inactive” each time.
